This note sets out measurements from PubChem BioAssay AID540271 (Broad Institute, 2011).

Usually AC50 stands for the concentration at which the activity in the assay is half-maximal.

The source made the active and inactive calls. How the calls were made is not given here.

The subject of this experiment is S. cerevisiae expressing PfHSP40, growth rescue, plate reader. Nature of the experiment: S cerevisiae expressing PfHSP40, growth rescue, cherry pick dose confirmatory, plate reader (AID 540271).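 Further: yeast growth read after three days of incubation at 30 °C.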
For `CCOC(=O)c1ccc(NC(=O)CC2C(=O)OCCN2CC)cc1` (stereo not drawn), the AC50 is 4.66 µM. For `CCOC(=O)c1cnc(-n2nc(C)cc2C)nc1NC1CCCC1`, the AC50 was 7.65 µM. For `COc1cc(/C=N/O)cc(Br)c1OCc1cccc(Cl)c1`, the AC50 was 5.31 µM.

With `Oc1ccc(N=Nc2ccc3c(c2)OCCO3)c2cccnc12`, the AC50 was 1.85 µM.

For the compound `CCC(Oc1ccccc1)C(=O)Nc1ncc([N+](=O)[O-])s1` (stereo not drawn), the AC50 is 6.83 µM. As to `Cc1nnc(N=c2ssnc2Cl)o1`, the AC50 was 3.22 µM. Then `O=c1c(-c2cccc3ccccc23)[n+]([O-])c2ccccc2n1O`, with 10.4 µM; and `O=C(N[C@@H](Cc1ccccc1)C(=O)CCl)OCc1ccccc1`, with 2.19 µM. Turning to `CCC(=O)NC(c1cc(Cl)c2cccnc2c1O)C(C)C` (stereo not drawn), the AC50 is 5.29 µM. For `O=NN(CCc1ccncc1)c1ccc(OCc2ccccc2)cc1`, the AC50 was 5.81 µM. For `Fc1ccc(CCNC(=S)Nc2ccc(F)c(Cl)c2)cc1` the value was 7.64 µM; for `Oc1c(Br)cc(Br)cc1CNc1ccc(F)cc1`, 6.21 µM; for `FC(F)(F)c1nc(SCc2ccc(Cl)cc2Cl)n[nH]1`, 6.21 µM. As for `CN(c1ccccc1)c1nc(N2CCCC2)nc(-n2ccnc2)n1`, the AC50 is 1.04 µM.

`O=C(N/N=C/c1sc(N2CCOCC2)nc1-c1ccccc1)c1ccccc1O`: the AC50 is 6.17 µM. For `CCCCNc1c(-c2cccc(Sc3ccc(OC)cc3)c2)nc2ccccn12` the value was 8.12 µM; for `CC12CCC(O)CC1=CCC1C2CCC2(C)C3=NN=CC3CC12` (stereo not drawn), 11.4 µM; for `CC(C)(C)n1nc(-c2ccc(F)cc2)c2c(N)ncnc21`, 1.47 µM. In the case of `CCOC(=O)c1ccc(NC(=S)N(Cc2cccnc2)Cc2ccco2)cc1`, the AC50 was 6.54 µM. Turning to `COc1cccc(NC=C2C(=O)OC3(CCCCC3)OC2=O)c1`, the AC50 was 9.91 µM.

In the case of `Oc1c(Cl)c(Cl)c(Cl)c(Cl)c1Cl`, the AC50 was 2.89 µM. On to `COc1ccc2c(c1)S/C(=C\C(=O)c1ccncc1)N2C`, for which the AC50 was 5.21 µM. Then `CC1CC(C)CN(C(=O)c2cccc(S(=O)(=O)Nc3cc(C(F)(F)F)ccc3Cl)c2)C1` (stereo not drawn), with 5.69 µM; and `O=C(N/N=C/c1ccc[nH]1)c1sc2ccccc2c1Cl`, with 6.23 µM; and `CCC(Oc1ccc(Br)cc1Cl)C(=O)Nc1nnc(C2CC2)s1` (stereo not drawn), with 4.51 µM. Regarding `O=C(OCC(=O)C12CC3CC(CC(C3)C1)C2)c1ccc(O)cc1`, the AC50 was 1.69 µM.

Regarding `CC1=C(C)/C(=N\OS(=O)(=O)c2ccc(C)cc2)C=CC1=O`, the AC50 is 5 µM.

Take `CCOC(=O)c1ccc(N2C(=O)CC(N3CCC(O)(c4ccc(Cl)cc4)CC3)C2=O)cc1` (stereo not drawn): the AC50 is 6.57 µM. Then `CCc1ccc(OCc2n[nH]c(=S)n2Cc2ccccc2)cc1`, with 5.29 µM; and `CC1=CC(C)(C)N(S(=O)(=O)c2ccc(C)cc2)c2ccc(C)cc21`, with 7.54 µM; and `Nc1c(Cl)ncnc1N/N=C/c1ccc2ccccc2n1`, with 5.36 µM.

In the case of `Cc1onc(-c2ccccc2)c1C(=O)NC(=S)NNC(=O)c1ccc(O)cc1O`, the AC50 is 4.82 µM. Then `CCCC1CCC(c2ccc(/C(N)=N/O)cc2)CC1` (stereo not drawn), with > 12 µM (inactive); and `CCCCn1c(=O)c(C(=O)NCc2ccncc2)c(O)c2ccccc21`, with 4.99 µM.

Regarding `CSc1nccc(NC(=O)c2ccc(C(C)(C)C)cc2)n1`, the AC50 is 5.08 µM.

Turning to `Nc1nc2sc3c(c2c(=O)s1)CCCC3`, the AC50 was 3.58 µM. Then `Cc1noc2ncnc(SCc3ccc(C(F)(F)F)cc3)c12`, with 7.67 µM.

With `COc1ccc(C2=CC(=O)C[C@H](c3ccc4c(c3)OCO4)C2)cc1`, the AC50 is 6.93 µM. For `Clc1ccc(C2=NCCN2)cc1` the value was 2.38 µM.

Regarding `Cc1ccsc1/C=C/c1ccc2cccc(O)c2n1`, the AC50 was 3.48 µM.

Regarding `CN(C)c1ccc(C=c2c3cc(O)ccc3n3c2cc(-c2ccccc2)[n+]3C)cc1`, the AC50 was 2.88 µM. With `Clc1ccc(OCc2nc(-c3ccncc3)no2)c(Br)c1`, the AC50 is 6.2 µM. With `COc1cccc2c1C(=O)c1c(O)c3c(c(O)c1C2=O)CC(O)(C(C)=O)CC3OC1CC(N(C)C)C(O)C(C)O1` (stereo not drawn), the AC50 is 1.41 µM.

Turning to `C=C(C)COc1ccc(-c2[nH]ncc2-c2ccc(Br)cc2)c(O)c1`, the AC50 was 4.66 µM.

On to `CC1Oc2ccccc2C=C1/C=N/Nc1ccc(C(=O)O)cc1` (stereo not drawn), for which the AC50 is 10.1 µM.

As to `CN(Cc1ccc(Cl)s1)C(=O)CCl`, the AC50 was 6.37 µM. Turning to `Cc1onc(-c2ccccc2)c1C(=O)NC(=S)NNC(=O)c1cc(-c2ccc(F)cc2)n[nH]1`, the AC50 was > 4.2 µM (inactive). Consider `OCCN(CCO)c1cc2c3ccccc3ccc2c2ccccc12`, for which the AC50 was 5.56 µM. `COc1ccc(-n2nc(C#N)c(Cl)cc2=O)cc1`: the AC50 is 7.48 µM.

Turning to `Cc1cc(/C=C2\SC(=S)NC2=O)c(C)n1-c1cccc(O)c1`, the AC50 was 9.83 µM. For `C[C@@]12CCC3[C@@](CCC4[C@@]3(C)CCC[C@@]4(C)C(=O)NCc3ccccc3)(CC1=O)C2` (stereo partly drawn) the value was 1.43 µM; for `Cc1ccc(C(=O)Sc2cccccc2=O)cc1`, 0.295 µM; for `CCCC(=O)NC(c1ccccc1OC)c1ccc2cccnc2c1O` (stereo not drawn), 1.7 µM. As for `CCCCNc1c(-c2cccc(-c3ccc(OC)cc3)c2)nc2ccc(C)cn12`, the AC50 was 5.67 µM.

In the case of `CN(C(=O)COC(=O)c1ccc([N+](=O)[O-])cc1Cl)C1CCCCC1`, the AC50 is 9.99 µM.

For the compound `CCc1cc(-c2[nH]ncc2-c2ccc([N+](=O)[O-])cc2)c(O)cc1OC`, the AC50 is 6.19 µM. Then `Cc1ccc(-n2nnnc2SCC(=O)N2CCc3ccccc3C2)c(C)c1`, with 5.8 µM. Then `O=c1cc(CSc2ccc(Cl)cc2)nc(-c2ccccn2)[nH]1`, with 4.13 µM. Then `CCCSC(=S)c1c(C)[nH]n(-c2ccccc2)c1=O`, with 5.46 µM; and `Clc1ccccc1CN(Cc1ccco1)Cc1nnnn1C1CCCC1`, with 5.17 µM.

Regarding `O=C(c1ccc(-c2ccccc2)c(F)c1)C1CCCN(C(=O)c2cncs2)C1` (stereo not drawn), the AC50 is 5.68 µM. As to `Cc1cc(-c2ccccc2)n(-c2cc(N/N=C/c3ccccc3O)ncn2)n1`, the AC50 is 5.77 µM.

As for `Oc1c(I)cc(Cl)c2cccnc12`, the AC50 was 0.629 µM.

With `O=C1c2cc(F)ccc2-n2c1nc1ccccc1c2=O`, the AC50 was 0.927 µM.

On to `COc1ccc2oc(=O)c(-c3csc(Nc4cccc(O)c4)n3)cc2c1`, for which the AC50 is 4.91 µM.

In the case of `S=C(NCc1ccco1)Nc1ccc(Oc2ccc(Cl)cc2)cc1`, the AC50 was 7.02 µM.

`O=c1c2ccccc2c(-c2ccc(O)cc2)nn1-c1cccc(C(F)(F)F)c1`: the AC50 was 3.92 µM.

For the compound `O=[N+]([O-])c1ccc(-c2nc(-c3cccs3)c(-c3cccs3)[nH]2)cc1`, the AC50 was 4.2 µM. For `Cc1cccc2sc(NNC(=O)c3ccc(S(=O)(=O)N4CC(C)CC(C)C4)cc3)nc12` (stereo not drawn) the value was 1.65 µM. `O=c1c(CO)cc(CO)cc(CO)c1O`: the AC50 was 6.03 µM. For `COC(=O)c1ccc(N2C(=O)CC(N(C)CCc3ccc(OC)c(OC)c3)C2=O)cc1` (stereo not drawn) the value was 5.2 µM; for `CC[n+]1c(/C=C/C=C/c2ccc(N(C)C)cc2)sc2ccccc21`, 3.71 µM. Then `Cc1ccccc1CN(C)CCS(=O)(=O)c1cc(Cl)ccc1Cl`, with > 12 µM (inactive); and `CCC(NC(=S)NCc1ccc(F)cc1)c1ccc(C(C)C)cc1` (stereo not drawn), with 5.15 µM. For `O=c1c2ccccc2nc(-c2cccc(Cl)c2)n1O` the value was 3.21 µM; for `COc1ccc(C(=O)NC(=S)NNC(=O)CCc2ccccc2)cc1`, 5.29 µM; for `CCc1oc2ccccc2c1C(=O)c1cc(Br)c(O)c(Br)c1`, 3.28 µM. In the case of `Cn1nc(C(F)(F)F)c(C#N)c1N1CCN(c2ccc(F)cc2)CC1`, the AC50 was 7.37 µM.

Consider `Cc1ccc(C(C)(C)C)cc1S(=O)(=O)Nc1ncnc2sccc12`, for which the AC50 is 2.83 µM. `CC/C(=N/NC(=O)c1ccccc1O)c1c(C)[nH]n(-c2ccccc2)c1=O`: the half-maximal activity concentration (AC50) was 0.705 µM. For `CCCn1c(=O)c(C(=O)NCc2ccc(OC)c(OC)c2)c(O)c2ccccc21` the value was 2.32 µM; for `Cc1cccc(C)c1NS(=O)(=O)c1ccc(-c2cnc(C3CC3)o2)cc1`, 6.06 µM; for `Cc1ccc(-c2c3c(nc4sc(C(N)=O)c(N)c24)CCCC3)o1`, 6.13 µM.

For `Clc1cccc(CON/C=N/c2ncnc3sccc23)c1`, the AC50 was 3.74 µM. Then `O/N=C/c1cc(Br)ccc1OCc1cccc(F)c1`, with 6.89 µM.

Consider `CC(=O)c1c(C)oc2c1C(=O)c1ccccc1C2=O`, for which the AC50 is 5.09 µM. As to `COc1cc(NC(=O)CSc2ccc(-c3ccccn3)nn2)cc(OC)c1`, the AC50 was 1.59 µM.

On to `CCCOc1ccc2ccccc2c1/C=C1\SC(=O)NC1=O`, for which the AC50 is 5.65 µM.

As to `CCCCCCCCCCOC(=O)Cn1c(COc2ccccc2OC)[n+](C)c2ccccc21`, the AC50 was 6.39 µM. As to `COc1ccc(N=N/C(=C\O)C(=O)c2cccs2)cc1`, the AC50 was 7.25 µM. Then `COc1ccc(C(=O)On2c(-c3ccc(Br)cc3)nc3ccccc3c2=O)cc1`, with 4.13 µM; and `O=C(COC(=O)c1ccc([N+](=O)[O-])o1)NC12CC3CC(CC(C3)C1)C2`, with > 12 µM (inactive); and `CC(C)(C)c1ccc(-n2nc(C#N)c(Cl)cc2=O)cc1`, with 6.03 µM. Then `Cc1cc(C(=O)N/N=C/c2cc(Br)cc([N+](=O)[O-])c2O)c2ccccc2n1`, with 3.37 µM; and `CCCCCCCCCCOC(=O)Cn1c(COc2ccc(OC)cc2)[n+](C)c2ccccc21`, with 6.37 µM. Regarding `Cc1ccc(NS(=O)(=O)c2ccc(N3CCN(c4ccc(O)cc4)CC3)c([N+](=O)[O-])c2)c(C)c1`, the AC50 was 7.43 µM. For `O=C1OC(c2ccccc2)=NC12CC2c1ccc(Cl)cc1` (stereo not drawn) the value was 2.2 µM; for `CCCCCCCCCCCCCC(=O)NO`, 0.727 µM; for `O=C(O/N=C(\c1ccccc1)c1ccncc1)c1ccccc1Cl`, > 12 µM (inactive). As to `COc1cc(C(=O)ON=C2C3CC4CC(C3)CC2C4)cc(OC)c1OC`, the AC50 is 5.01 µM. Consider `COc1cccc(/C=N/Nc2ncnc3scc(-c4ccccc4)c23)c1O`, for which the AC50 is 1.7 µM.

Consider `Cc1c(C(=O)NCCSCc2cccc(C(F)(F)F)c2)cnn1-c1ccc(Cl)cc1`, for which the half-maximal activity concentration (AC50) was 6.1 µM. For `S=C(Nc1ccc(Oc2ccccc2)cc1)NC1CCCCCC1` the value was 6.93 µM.
